Molecules are shown by their SMILES.

The nature of this data set: gradient 5% acetonitrile 3 min, to 50% in 2 min, to 85% in 15 min, held 3 min, 100 µL/min. Particulars: column: Zorbax Extend-C18 2.1 x 50 mm; eluents: water / acetonitrile, 0.1% formic acid. The procedure, abridged:
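Standards, all pure, were combined into mixtures of ~100 molecules and run at 100 μL/min on a Zorbax Extend-C18 column (2.1 × 50 mm, 1.8 μm) with water and acetonitrile, each containing 0.1% formic acid. A coupled quadrupole time-of-flight mass spectrometer operated in positive and negative ionization mode. Retention time values come from computationally picked adduct peaks, each inspected manually.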
With `COc1ccc(CNC(=O)Cn2c(N3CCCC3)nc(C)cc2=O)cc1`, the RP-LC retention time was 612 s. With `COc1ccc(OC)c(S(=O)(=O)N2CC(N3CC(C(=O)N4CCCC4)CC3=O)C2)c1` (stereo not drawn), the RP-LC retention time was determined as 666 s. Under `CCc1noc(NC(C)=O)c1-c1ccc(C)c(S(=O)(=O)Nc2ccc(C)cc2)c1` stands 830 s; under `O=C1CCN(Cc2ccc3c(c2)CCO3)CCCCCCN1`, 586 s. As for `Cc1cc(N(C)C)nc(N2CCN(S(=O)(=O)c3cc(C)c(C)cc3C)CC2)n1`, the RP-LC retention time is 793 s.

On to `COC(=O)c1cnc2nc(C)ccc2c1Nc1ccc(Br)cc1C`, for which the RP-LC retention time is 732 s.

Take `CCN1CCCCc2cc(C(=O)NC(C)(C)C)sc21`: the RP-LC retention time came out at 1080 s. Regarding `Cc1ccccc1Nc1c(-c2ccc(Cl)cc2)nc2cnccn12`, the RP-LC retention time is 1030 s. In the case of `CC(=O)N[C@@H]1CN(C(=O)c2ccc3ncccc3c2)C[C@H]1CO`, the RP-LC retention time came out at 536 s.

As to `COc1ccc(NC(=O)N2c3ccccc3CC2c2nc(C(C)C)no2)c(OC)c1` (stereo not drawn), the RP-LC retention time is 1080 s. For the compound `Cc1cc(C)cc(NC(=O)CN2C(=O)CC(C)S(=O)(=O)c3ccccc32)c1` (stereo not drawn), the RP-LC retention time turned out to be 846 s. `Cc1cc(C)c2c(N3CCCC3)nc(C(=O)Nc3ccc(N4CCOCC4)cc3)nc2n1` showed an RP-LC retention time of 612 s. As for `Cn1c(=O)sc2cc(S(=O)(=O)N3CCC(C(=O)NCCc4nc5ccccc5[nH]4)CC3)ccc21`, the RP-LC retention time was 624 s. The compound `O=C(Cn1cccc1-c1nnc(C2CCC2)o1)Nc1ccc(F)c(Cl)c1` yielded an RP-LC retention time of 965 s.

In turn, `CCCNC(=O)C1CCCN(c2ccc(SCC(=O)Nc3ccc(C(F)(F)F)cc3)nn2)C1` (stereo not drawn) displayed an RP-LC retention time of 690 s.

For the compound `COCc1nc(-c2ccc(OC3CNC3)cc2)no1`, the RP-LC retention time turned out to be 578 s. As to `CCN1CCN(C(=O)c2cn(-c3ccc(NC(=O)CC(C)C)cn3)cn2)CC1`, the RP-LC retention time is 589 s. For `Cc1ccc(Cn2cc(C(=O)O)c(S(=O)(=O)N3CCSCC3)n2)cc1`, the RP-LC retention time stood at 861 s. In turn, `Cc1cc(C)n2c(Nc3c(C)cccc3C)c(-c3ccccc3)nc2n1` came in with an RP-LC retention time of 743 s.

In the case of `COc1cc(-c2nnc(/C=C/c3cccs3)o2)cc(OC)c1OC`, the RP-LC retention time came to 886 s. For `O=C(NC1CCCCC1)c1nc(-c2ccnc(N3CCCCC3)c2)no1`, the RP-LC retention time came to 804 s.

As to `O=C1/C(=C\c2ccc(O)c(O)c2)Oc2c1ccc(O[C@@H]1O[C@H](CO)[C@@H](O)[C@H](O)[C@H]1O)c2O`, the RP-LC retention time was 638 s.

In turn, `CCOC(=O)c1noc2nc(C)nc(N3CCN(c4cccc(Cl)c4)CC3)c12` displayed an RP-LC retention time of 1220 s. Regarding `O=C(NCc1cccnc1)C(=O)NCc1ccc2c(c1)OCO2`, the RP-LC retention time stood at 588 s. The value for `Cc1c(Cl)cccc1NC(=O)CN1C(=O)CCCc2cc(S(=O)(=O)N3CCCC3)ccc21` was 879 s; that for `O=C1/C(=C/c2ccc([N+](=O)[O-])cc2)CCc2ccccc21` was 1160 s; that for `COc1ccccc1NC(=O)NC1CCN(c2ccc(F)c(C)c2)C1=O` (stereo not drawn) was 833 s. On to `CC1(C)C(=O)N(CC(=O)Nc2ccc3c(c2)OCCO3)c2ccccc21`, for which the RP-LC retention time is 823 s. As to `COc1ccc(N2CCN(c3cc(SCC(=O)NCCCc4ccccc4)ncn3)CC2)cc1`, the RP-LC retention time came to 1110 s. Turning to `COC(=O)c1ccc2c(=O)n(-c3cc(OC)cc(OC)c3)c(N3CCOCC3)nc2c1`, the RP-LC retention time amounted to 903 s. The value for `Cc1ccc(-n2nc(C)c(S(=O)(=O)N3CCN(c4ccccn4)CC3)c2C)cc1` was 721 s; that for `COc1cccc(NC(=O)C2CCN(S(=O)(=O)c3cn(C)cn3)CC2)c1` was 656 s. For `CCCNC(C)C(=O)Nc1c(C)csc1C(=O)OC` (stereo not drawn), the RP-LC retention time worked out at 652 s.

For the origin of these results see the METLIN SMRT retention time set (Domingo-Almenara et al. 2019).
